Source: PMC10328743, “5-Nitro-3-(2-(4-phenylthiazol-2-yl)hydrazineylidene)indolin-2-one derivatives inhibit HIV-1 replication by a multitarget mechanism of action” (Frontiers in Cellular and Infection Microbiology, 2023)
Where two headings read alike, the source gives them in different places.

Tests used:
[1] = molecular target: T1, HIV-1 RT-associated RNase H (Human immunodeficiency virus type 1 group M subtype B, UniProt P04585); assay: HIV-1 DNA polymerase-independent RNase H activity determination; format: biochemical
T1 construct: The 1:1 ratio between the p66/p51 subunits was also verified; His tag (implied only by Ni-NTA IMAC purification); made in house; host or cells: Escherichia coli M15
Procedure: (§1) Escherichia coli strain M15 containing the p6HRT-prot vector (provided by Stuart Le Grice laboratory (NCI Frederick)) was grown to an optical density at 600 nm of 0.7 and induced with 1.7 mM of isopropyl β-D-1-thiogalactopyranoside (IPTG) for 4 h. Protein purification was carried out with a BioLogic LP system (Bio-Rad, Hercules, CA, USA) using a combination of immobilized metal affinity chromatography (IMAC) and ion exchange chromatography. Cell pellets were resuspended in lysis buffer (50 mM of sodium phosphate buffer, pH 7.8, containing 0.5 mg/mL of lysozyme), incubated on ice for 20 min, and, after the addition of NaCl to a final concentration of 0.3 M, were sonicated and centrifuged at 30,000 ×g for 1 h. The supernatant was loaded onto a Ni^2+-NTA-Sepharose column pre-equilibrated with loading buffer (50 mM of sodium phosphate buffer, pH 7.8, containing 0.3 M of NaCl, 10% glycerol, and 10 mM of imidazole) and washed thoroughly with wash buffer (50 mM of sodium phosphate buffer, pH 6.0, containing 0.3 M of NaCl, 10% glycerol, and 80 mM of imidazole). RT was eluted with an imidazole gradient in the wash buffer (0–0.5 M). Fractions were collected, and protein purity was checked by sodium dodecyl sulfate–polyacrylamide gel electrophoresis (SDS-PAGE) and found to be higher than 90%. The 1:1 ratio between the p66/p51 subunits was also verified. Enzyme-containing fractions were pooled and diluted 1:1 with 50 mM of sodium phosphate buffer, pH 7.0, containing 10% glycerol, and then loaded into a Hi-trap heparin HP GE (Healthcare LifeScience) pre-equilibrated with 10 column volumes of loading buffer (50 mM of sodium phosphate buffer, pH 7.0, containing 10% glycerol, and 150 mM of NaCl). The column was then washed with loading buffer, and the RT was eluted with Elute Buffer 2 (50 mM of sodium phosphate, pH 7.0, 10% glycerol, 1 M of NaCl). Fractions were collected, and the protein was dialyzed and stored in a buffer containing 50 mM of Tris-HCl, pH 7.0, 25 mM of NaCl, 1 mM of EDTA, and 50% glycerol. Catalytic activities and protein concentrations were determined. Enzyme-containing fractions were pooled, and aliquots were stored at −80°C.
HIV RT-associated RNase H activity was measured as described ([Corona et al., 2016b]) in a 100-µl reaction volume containing 50 mM of Tris-HCl buffer, pH 7.8, 6 mM of MgCl2, 1 mM of dithiothreitol (DTT), 80 mM of KCl, 0.25 µM of hybrid RNA/DNA 5′-[…]-Fluorescin-3′ (high-performance liquid chromatography (HPLC), dry, QC: Mass Check) (available from Metabion) 5′-Dabcyl-[…]-3′ (HPLC, dry, QC: Mass Check), increasing concentrations of inhibitors, whose dilution were made in water, and different amounts of enzymes according to a linear range of the dose–response curve. The reaction mixture was incubated for 1 h at 37°C and stopped by the addition of EDTA, and products were measured with a multilabel counter plate reader Victor 3 equipped with filters for 490/528 nm.

HIV-1 RT-associated RDDP = molecular target: T2, HIV-1 RT-associated RDDP (Human immunodeficiency virus type 1 group M subtype B, UniProt P04585); assay: HIV-1 RNA-dependent DNA polymerase activity determination; format: biochemical
T2 construct: The 1:1 ratio between the p66/p51 subunits was also verified; His tag (implied only by Ni-NTA IMAC purification); made in house; host or cells: Escherichia coli M15
Procedure: as §1
RDDP activity was measured as previously reported in 25-µl volume containing 60 mM of Tris‐HCl buffer, pH 8.1, 8 mM of MgCl2, 60 mM of KCl, 13 mM of DTT, 2.5 µM of poly(A)-oligo(dT), 100 µM of dTTP, increasing concentrations of inhibitors, whose dilution were made in water, and different amounts of enzymes according to a linear range of the dose–response curve. The reaction mixture was incubated for 30 min at 37°C and then stopped by the addition of EDTA. Reaction products were detected by pico green addition and measured with a multilabel counter plate reader Victor 3, equipped with filters for 502/523 nm.

HIV-1 = HIV-1 replication inhibition in MT4 cells; format: cell-based
Procedure: (§2) HIV-1 replication was carried out in MT4 cells as previously reported ([Corona et al., 2016a]) using a molecular clone derived from the pNL4-3 ([Thierry et al., 2015]). A total of 120 ng of p24^gag antigen per 10^6 cells, corresponding to a multiplicity of infection (m.o.i.) of 0.3, was used for infection. […] Flow cytometry analysis was performed on a FACSCalibur flow cytometer (BD Biosciences, San Jose, CA, USA), and the results were analyzed using the […] software.

[2] = Viability of infected MT4 cells (cytotoxicity); format: cell-based; settings: human, infected MT4 cells viability, three independent experiments, average ± standard deviation
Procedure: as §2

[3] = wt HIV-1 RT, three independent experiments, average ± standard deviation, read-out: RNase H IC50
[4] = wt HIV-1 RT, three independent experiments, average ± standard deviation, read-out: RDDP IC50
[5] = Human immunodeficiency virus 1, MT4, viral replication in MT4 cells, three independent experiments, average ± standard deviation, read-out: HIV-1 EC50
[6] = Human immunodeficiency virus 1, MT4, read-out: HIV-1 EC50
[7] = wt HIV-1 RT, three independent experiments, average ± standard deviation

SMILES	IC50 [1, 3]	IC50 (HIV-1 RT-associated RDDP; [4])	EC50 (HIV-1; [5])	CC50 ([2]; MT4 cells infected with HIV-1)	IC50 [1]	IC50 (HIV-1 RT-associated RDDP)	EC50 (HIV-1; [6])	CC50 [2]	RNase H IC50 [1, 7]
O=C1Nc2ccc(Cl)cc2C1=NNc1nc(-c2ccc(Cl)cc2)cs1 [1b]	12 ± 2.3 µM	30 ± 7.5 µM	> 100 µM	> 100 µM					
Cn1c(-c2ccc(Cl)cc2)cs/c1=N\N=C1/C(=O)Nc2ccc([N+](=O)[O-])cc21 [1c]	8.2 ± 1 µM	24 ± 3 µM	> 42 µM	42 ± 8 µM					
O=C1Nc2ccc([N+](=O)[O-])cc2/C1=N/Nc1nc(-c2ccc(F)cc2)cs1 [2a]	5.1 ± 2 µM	9.5 ± 0.5 µM	> 100 µM	> 100 µM					
O=C1Nc2ccc(Cl)cc2/C1=N/Nc1nc(-c2ccc(F)cc2)cs1 [2b]	4.5 ± 0.2 µM	7.5 ± 1.5 µM	> 56 µM	56 ± 6 µM					
Cn1c(-c2ccc(F)cc2)cs/c1=N\N=C1/C(=O)Nc2ccc([N+](=O)[O-])cc21 [2c]	5.6 ± 0.6 µM	21 ± 1 µM	> 7 µM	7 ± 1.6 µM					
O=C1Nc2ccc(Cl)cc2/C1=N/Nc1nc(-c2ccc(Br)cc2)cs1 [3b]	4.4 ± 0.1 µM	8.3 ± 0.6 µM	> 95 µM	95 ± 14 µM					
Cn1c(-c2ccc(Br)cc2)cs/c1=N\N=C1/C(=O)Nc2ccc([N+](=O)[O-])cc21 [3c]	7.7 ± 1.2 µM	19.5 ± 3.3 µM	> 25 µM	25 ± 3.1 µM					
O=C1Nc2ccc([N+](=O)[O-])cc2/C1=N/Nc1nc(-c2ccc([N+](=O)[O-])cc2)cs1 [4a]					7.6 ± 1.4 µM	21 ± 3 µM	> 100 µM	> 100 µM	
O=C1Nc2ccc(Cl)cc2/C1=N/Nc1nc(-c2ccc([N+](=O)[O-])cc2)cs1 [4b]	15.3 ± 1.5 µM	14.9 ± 2.7 µM	> 50 µM	50 ± 12 µM					
Cn1c(-c2ccc([N+](=O)[O-])cc2)cs/c1=N\N=C1/C(=O)Nc2ccc([N+](=O)[O-])cc21 [4c]					1.9 ± 0.2 µM	6 ± 0.5 µM	> 5.5 µM	5.5 ± 0.9 µM	
O=C1Nc2ccc([N+](=O)[O-])cc2/C1=N/Nc1nc(-c2ccc(-c3ccccc3)cc2)cs1 [5a]	7.1 ± 0.1 µM	12 ± 3 µM	> 100 µM	> 100 µM					
O=C1Nc2ccc(Cl)cc2/C1=N/Nc1nc(-c2ccc(-c3ccccc3)cc2)cs1 [5b]	13.2 ± 1.6 µM	38 ± 5 µM							
Cn1c(-c2ccc(-c3ccccc3)cc2)cs/c1=N\N=C1/C(=O)Nc2ccc([N+](=O)[O-])cc21 [5c]	6.1 ± 1.1 µM	11.4 ± 2.2 µM	> 7 µM	7 ± 1.4 µM					
N#Cc1ccc(-c2csc(N/N=C3\C(=O)Nc4ccc([N+](=O)[O-])cc43)n2)cc1 [6a]	6 ± 0.1 µM	9.3 ± 0.3 µM	> 100 µM	> 100 µM					
N#Cc1ccc(-c2csc(N/N=C3\C(=O)Nc4ccc(Cl)cc43)n2)cc1 [6b]	7.8 ± 0.1 µM	34 ± 6 µM	> 95 µM	95 ± 5 µM					
Cn1c(-c2ccc(C#N)cc2)cs/c1=N\N=C1/C(=O)Nc2ccc([N+](=O)[O-])cc21 [6c]	100 ± 5 µM	12.1 ± 1.6 µM							active only toward the RDDP function
O=C1Nc2ccc([N+](=O)[O-])cc2/C1=N/Nc1nc(-c2ccc(F)cc2F)cs1 [7a]	6 ± 0.1 µM	11.5 ± 0.5 µM							
O=C1Nc2ccc(Cl)cc2/C1=N/Nc1nc(-c2ccc(F)cc2F)cs1 [7b]	6 ± 1.5 µM	10 ± 1 µM							
O=C1Nc2ccc([N+](=O)[O-])cc2/C1=N/Nc1nc(-c2cccc([N+](=O)[O-])c2)cs1 [8a]	6.5 ± 0.5 µM	18.5 ± 0.5 µM							
O=C1Nc2ccc(Cl)cc2/C1=N/Nc1nc(-c2cccc([N+](=O)[O-])c2)cs1 [8b]	22 ± 1 µM	72 ± 13 µM							
Cn1c(-c2cccc([N+](=O)[O-])c2)cs/c1=N\N=C1/C(=O)Nc2ccc([N+](=O)[O-])cc21 [8c]	100 ± 20 µM	8.7 ± 1.5 µM							active only toward the RDDP function
O=C1Nc2ccc([N+](=O)[O-])cc2/C1=N/Nc1nc(-c2ccc(Cl)c(Cl)c2)cs1 [9a]	6.5 ± 0.5 µM	11.5 ± 0.5 µM	> 100 µM	> 100 µM					
Cn1c(-c2ccc(Cl)c(Cl)c2)cs/c1=N\N=C1/C(=O)Nc2ccc([N+](=O)[O-])cc21 [9c]	1.9 ± 0.7 µM	15.1 ± 0.5 µM	> 5 µM	5 ± 1.3 µM					
Cc1ccc(-c2csc(NN=C3C(=O)Nc4ccc(Cl)cc43)n2)cc1 [10b]	10 ± 1.4 µM	18 ± 0.7 µM	> 100 µM	> 100 µM					
Cc1ccc(-c2cs/c(=N\N=C3/C(=O)Nc4ccc([N+](=O)[O-])cc43)n2C)cc1 [10c]	6.8 ± 1.4 µM	16.9 ± 2.3 µM	> 10 µM	10 ± 2.7 µM					
COc1ccc(-c2csc(N/N=C3\C(=O)Nc4ccc([N+](=O)[O-])cc43)n2)cc1 [11a]	8.5 ± 0.6 µM	14.5 ± 0.5 µM	> 100 µM	> 100 µM					
COc1ccc(-c2csc(N/N=C3\C(=O)Nc4ccc(Cl)cc43)n2)cc1 [11b]	7 ± 1 µM	16.2 ± 2.8 µM	> 70 µM	70 ± 9 µM					
COc1ccc(-c2cs/c(=N\N=C3/C(=O)Nc4ccc([N+](=O)[O-])cc43)n2C)cc1 [11c]	4 ± 1.4 µM	11.2 ± 2.2 µM	> 2 µM	2 ± 0.4 µM					
